From article PMC8551077, “Conditions for maintenance of hepatocyte differentiation and function in 3D cultures” (iScience, 2021)
Read-outs that look alike come from different tables or passages of the source.

Assays:
PHH spheroids = conditions: 96-well format, medium similar to WEHG; ref Vorrink et al., 2018; cited from earlier work
[1] = test system: primary human hepatocytes (PHH) spheroids; conditions: 14 days of treatment, preliminary
Method: To compare how the best performing media influenced the DILI response, a similar approach but in the 384-well format we performed a preliminary hepatotoxicity study (Figure S6). Five prototypic compounds from the previous study were tested in HMM, WENG, and WENG+ media. […] Hepatotoxicity was evaluated after chronic exposure to each of the five drug compounds at 1×, 5×, and 20× times their clinical Cmax concentrations for two weeks, as outlined by [Vorrink et al., (2018)].
ATP conent (expressed as relative light units; RLU) was used to measure the energy status of the PHH spheroids. The spheroids were incubated in AccuMax cell dissociation solution (Thermo Fisher Scientific) for 30 min at 37°C followed by centrifugation at 100 x g for 5 min. The CellTiter-Glo3D assay (Promega, Madison, Wisconsin) was used, with slight modifications. Briefly, the plate was first left for 30 min at room temperature for temperature equilibration. Thereafter CellTiter-Glo® 3D was added, and the plate left in room temperature for another 20 min on a horizontal plate shaker. The luminescence was measured on a Spark plate reader (TECAN). The results are presented as mean values +/- SD of eight technical replicates performed on three independent occasions.
Preliminary studies of hepatotoxicity were conducted as previously described for the 96-well format ([Vorrink et al., 2018]). Briefly, PHHs were cultured in 384-well plates in HMM, WENG or WENG+ media for 1 week to form spheroids. The compounds were dissolved in dimethyl sulfoxide (DMSO), and added to the wells at a final DMSO concentration of 0.5%. As in the Vorrink et al. study, final concentrations of 1×, 5×, and 20× times the clinical Cmax of the compounds were used The exposure medium was changed every 48–72h for the 14 days of treatment. On the last day, PHH viability was assessed by measurement of ATP content (see above) and a viability below 80% of control levels was considered hepatotoxic ([Vorrink et al., 2018]).

albumin = conditions: ref Davies and Anderson, 1997; U. S. Food and Drug Administration, 2019; cited from earlier work
[2] = WENG+ medium (zinc-supplemented), 1×, 5×, 20× clinical Cmax
[3] = all media (HMM, WENG, WENG+), all concentrations (1×, 5×, 20× clinical Cmax), controls gave correct results

Structure (SMILES) | DILI classification in the previous study (PHH spheroids) | Hepatotoxicity (DILI signal; viability below 80% of control levels considered hepatotoxic) [1, 2] | Hepatotoxicity (DILI signal; viability below 80% of control levels considered hepatotoxic) [1, 3] | further results
O=C(O)Cc1ccccc1Nc1c(Cl)cccc1Cl [diclofenac] | DILI-positive | did not show a DILI signal |  | 
Cn1cnc([N+](=O)[O-])c1Sc1ncnc2nc[nH]c12 [azathioprine] | DILI-positive |  | positive | 
CN(C)CCCN1c2ccccc2Sc2ccc(Cl)cc21 [chlorpromazine] | DILI-positive | did not show a DILI signal |  | 
OC(Cn1cncn1)(Cn1cncn1)c1ccc(F)cc1F [fluconazole] | false DILI-negative | false negative response |  | Hepatotoxicity (DILI signal; viability below 80% of control levels considered hepatotoxic) ([1]; HMM medium, 1×, 5×, 20× clinical Cmax): strong DILI signal; Hepatotoxicity (DILI signal; viability below 80% of control levels considered hepatotoxic) ([1]; WENG medium, 1×, 5×, 20× clinical Cmax): strong DILI signal
CC(=O)CC(c1ccccc1)c1c(O)c2ccccc2oc1=O (stereo not drawn) [warfarin] |  |  | negative | 
Cc1ncc2n1-c1ccc(Cl)cc1C(c1ccccc1F)=NC2 [midazolam] |  |  |  | Binding to albumin (albumin): highly bound
